Where “and” joins values, the source holds several entries; their conditions need not be identical. Equal entries are not always repeated. Entries after “also recorded” stand apart in the source; their conditions may differ.
Assays:
[1] = system: PSA (prostate specific antigen) mRNA, AR target gene; assay: PSA mRNA expression in LNCaP⋅FGC cells; settings: 48 hours
Method: For the analysis of anti-androgen activity, the LNCaP⋅FGC cells, an androgen-dependent prostate cancer cell line, were used and the level of mRNA of PSA (Prostate specific antigen), which is one of the AR target genes, in prostate cancer was measured.

[2] = system: mouse model with benign prostatic hyperplasia; assay: Prostate size in testosterone-induced benign prostatic hyperplasia animal model; assay type: in vivo, Sprague Dawley mice
Method: First of all, the animals used for experiments were 11-week old male Sprague Dawley mice, which were purchased from Damul Science Co. (Daejeon, Republic of Korea). […] As a positive control group, the finasteride (2 mg/kg/day) was used and the Dendropanax morbifera extract was administered for 2 groups (0.5 and 2 mg/kg). 3 weeks after the drug administration, the mice were sacrificed and the results were observed. V, vehicle administration group; CTL, control group; TP, testosterone-propionate administration group; FS, finasteride administration group; […] CMC, carboxymethylcellulose administration group. […] From the previously described experiment schedule, blood and prostate were collected after measuring the body weight and sacrificing on the day after the last day of administration. The weight of removed prostate was measured after removing the surrounding fats and foreign substances and the weight ratio of prostate to body was calculated by the following equation and the result is listed in Table 4.

[3] = system: PSA (prostate specific antigen); assay: PSA content in blood of benign prostatic hyperplasia animal model (ELISA); assay type: in vivo, Sprague Dawley mice; settings: TP + drug 2 mg/kg
Description: First of all, the animals used for experiments were 11-week old male Sprague Dawley mice, which were purchased from Damul Science Co. (Daejeon, Republic of Korea). They were provided with hard food and water frequently and were used in experiments after a week of adaptation period for laboratory environment and the animal experiments conducted herein were approved by Chonnam National University animal experiment ethics committee (IRB) (CNU IACUC-YB-R-2012-9).
The male Sprague Dawley mice were divided into the groups such as vehicle control group (V-CTL) that is an experimental group, the group administered with testosterone only (TP-CTL), the group administered with finasteride as positive control for testosterone (TP+FS) and the groups administered with Dendropanax morbifera (TP+DMH), and for each group, n was equal to 4 and overall experimental procedure is as illustrated in Table 3. […] As a positive control group, the finasteride (2 mg/kg/day) was used and the Dendropanax morbifera extract was administered for 2 groups (0.5 and 2 mg/kg).
From the sacrificed mouse in the above example, the plasma was isolated from blood and the content of PSA was determined. PSA measurement was conducted using ELISA (MyBiosource, Arizona, USA) according to the manufacturer's experimental protocol and presented as pg/mL content.

SMILES: C=C[C@H](O)C#CC#CC=CC(O)CCCCCCCC(=O)O (stereo partly drawn) [HS3, 9,16S-dihydroxy-10,17-octadecadiene-12,14-diynoic acid]
- mRNA expression of PSA [1]: inhibit

SMILES: C=CC(O)C#CC#CC=C[C@H](O)CCCCCCCC(=O)O (stereo partly drawn) [HS5, 9,16R-dihydroxy-10,17-octadecadiene-12,14-diynoic acid]
- mRNA expression of PSA [1]: inhibit

SMILES: C=CC(O)C#CC#CC/C=C\CCCCCCCC(=O)O (stereo not shown) [HS7, (9Z)-16-hydroxy-9,17-octadecadiene-12,14-diynoic acid]
- mRNA expression of PSA [1]: inhibit; also recorded: most effective

SMILES: CC(C)(C)NC(=O)[C@H]1CC[C@H]2[C@@H]3CC[C@H]4NC(=O)C=C[C@]4(C)[C@H]3CC[C@]12C [FS, finasteride]
- Weight of prostate ([2]; TP 3 mg/kg s.c. + drug 2 mg/kg p.o. daily for 3 weeks): 0.95 ± 0.12 g
- prostate %/body weight (w/w) ([2]; TP + drug 2 mg/kg p.o.): *0.22 ± 0.018%
- % TP-CTL ratio ([2]; TP + drug 2 mg/kg p.o., relative to testosterone-only control): 74.3% and 74.3 ± 3.2%
- % V-CTL ratio ([2]; TP + drug 2 mg/kg p.o., relative to vehicle control): 185.7 ± 15.1%
- % Vehicle control ([3]; blood PSA): 18.7 ± 5.0%
- % TP control ([3]; blood PSA, relative to TP (3 mg/kg) only): 34.6%
- PSA ([3]; plasma): *323.0 ± 85.0 pg/mL

Reference: patent US10130668B2, “Composition comprising Dendropanax morbifera extract or compound derived therefrom as active ingredient for preventing and treating benign prostatic hyperplasia” (priority 2012, dated 2018)
